Measured values as given in US11311538B2, “Compositions and methods for targeting cancers” (YALE UNIVERSITY, priority 2018, dated 2022).

What was measured:
[1] = system: shCTRL-expressing HEK293FT tumor xenografts; test: Tumor growth delay assay, shCTRL HEK293FT xenografts; type: in vivo, mouse
Source text: In vivo efficacy studies: HEK293FT xenografts. Female athymic nu/nu mice (Hsd:Athymic Nude-Foxnlnu, Envigo) were used for all in vivo xenograft studies. Mice were quarantined for at least 1 week before experimental manipulation. Tumors were formed using shRNA-expressing versions of the tumorigenic human embryonic kidney cell-derived line, HEK293FT. HEK293FT is a subline of HEK293 cells that has been transformed by expression of SV40 Large T-antigen. […], or shCTRL (non-targeted control) expressing HEK293FT cells were implanted subcutaneously (5×10^6 cells in 0.1 cc PBS) in the right flank of nude mice. Two efficacy studies were conducted. In one, mice were randomized into treatment and non-treated groups (10 mice/group) at day 3, with treatment initiation 4 days post implant. In a second independent in vivo efficacy study, mice were injected as above with 10 mice per group, and treatment was started only once the tumor volumes reached […]. For both studies, mice were visually observed daily and tumors were measured three times per week by calipers to determine tumor volume using the formula: Volume=L×W×W×0.532. Mice were fed with a grain based rodent diet containing Doxycycline at 200 mg/kg (Bioserv, Catalog #S3888). […] P-values were determined by ANOVA with repeated measures. […]

poly-ADP-ribose (PAR) = test: Poly-ADP-Ribose ELISA in xenograft tumors; type: in vivo, mouse; settings: 24 h post single dose (FIG. 4K)
Procedure: Tumors developed with mice on a rodent diet including doxycycline just as in the in vivo efficacy studies. Once tumors were at 80 mm^3 mice were gavaged with BMN-673 at 1 or 10 mg/kg or vehicle. Tumors were collected 24 hours later for and frozen at −80° C. The concentrations of BMN-673 in tumor samples were determined using liquid chromatography with tandem mass spectrometry (LC-MS/MS). In brief, an aliquot (30 μL) tumor homogenate was protein precipitated with volumes of methanol, and 5 μL of supernatant was injected into the LC-MS/MS system. LC-MS/MS analyses were performed on a Waters LC-MS/MS system consisting a Waters AQUITY UPLC system coupled with a TQ-XS triple quadrupole mass spectrometer (Milford, Mass., USA). […] BMN673 was monitored using the positive electrospray ionization mode at the most sensitive and specific mass transition, m/z 381.0>228.8. The linear calibration curve was established at BMN673 concentration range of 5-5000 nM in mouse serum. The precision and accuracy of quality control samples were within generally acceptable criteria for bioanalytical methods. Poly-ADP-Ribose ELISA. Poly-ADP-Ribose ELISA was performed per manufacturer's protocol using the PARP in vivo Pharmacodynamic Assay II Kit (Trevigen). 2 μg of protein input was used per replicate and luminescence reading were converted to pg PAR/μg protein using a standard curve. Statistics and Reproducibility. […]

In the case of `Cn1ncnc1[C@H]1c2n[nH]c(=O)c3cc(F)cc(c23)N[C@@H]1c1ccc(F)cc1` [BMN-673, BMN-673 (Talazoparib)], the “tumor growth vs vehicle, shCTRL tumors” value ([1]; treatment after tumors reached 95-150 mm^3, 0.5 mg/kg oral gavage once daily (FIG. 4I)) is reported as “no growth inhibition”, the “tumor growth vs vehicle, shCTRL tumors” value ([1]; treatment beginning four days after implantation, 0.5 mg/kg oral gavage once daily (FIG. 4F)) is reported as “no effect” and the “PAR levels by ELISA, SDHB knockdown vs shCTRL tumors” value (poly-ADP-ribose (PAR)) is reported as “reduced to the same extent”.
